Literature values as cited in patent US6699847B2, “Antiparasitic formulation” (Pfizer Inc., priority 1998, dated 2004).

SMILES: CO[C@H]1C[C@H](O[C@H]2[C@H](C)O[C@@H](O[C@@H]3/C(C)=C/C[C@@H]4C[C@@H](C[C@]5(C=C[C@H](C)[C@@H](C6CCCCC6)O5)O4)OC(=O)[C@@H]4C=C(C)[C@@H](O)[C@H]5OC/C(=C\C=C\[C@@H]3C)[C@]54O)C[C@@H]2OC)O[C@@H](C)[C@@H]1O [Doramectin]
- solubility in water: sparingly soluble
